According to PubChem BioAssay AID1963874 (Molecular Pharmacology Branch, DTP, NCI, 2024):

Tested on: 253994-281-T-J1-PDC KRAS-mutant spheroids with HUVEC/MSC, viability
Assay: Anticancer human tumor 253994-281-T-J1-PDC patient-derived colorectal carcinoma cell line growth inhibition [KRAS2]
Conditions: for IC50: curve of first compound; for viability, T/C: stronger effect = lower value
In short: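 Combination screen of spheroid viability in tumor-cell co-cultures with endothelial (HUVEC) and mesenchymal stem cell stroma. Each agent was tested in half-log dilutions, topping at clinical Cmax or at 10 microM without a known Cmax.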
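Note: spheroids exposed to agents for seven days before readout.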
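Throughout, for viability, T/C: percent of DMSO vehicle control viability.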

SMILES: CC1OCC2(CCN(c3cnc(Sc4ccnc(N)c4Cl)c(N)n3)CC2)C1N (stereo not given) + COc1cc2nc(C)nc(NC(C)c3cc(N)cc(C(F)(F)F)c3)c2cc1OC1CCOC1
- IC50 (second compound 0.1 µM): > 10 µM
- IC50 (second compound 0.316 µM): 9.31 µM
- IC50 (second compound 1 µM): 7.65 µM
- IC50 (second compound 3.16 µM): > 10 µM
- IC50 (second compound 10 µM): 3.31 µM
- viability, T/C (second compound 0.1 µM, first compound 0.0316 µM): 110%
- viability, T/C (second compound 0.1 µM, first compound 0.1 µM): 86.2%
- viability, T/C (second compound 0.1 µM, first compound 0.316 µM): 91.9%
- viability, T/C (second compound 0.1 µM, first compound 1 µM): 74.5%
- viability, T/C (second compound 0.1 µM, first compound 3.16 µM): 68%
- viability, T/C (second compound 0.1 µM, first compound 10 µM): 48%
- viability, T/C (second compound 0.316 µM, first compound 0.0316 µM): 87.5%
- viability, T/C (second compound 0.316 µM, first compound 0.1 µM): 87.6%
- viability, T/C (second compound 0.316 µM, first compound 0.316 µM): 81.6%
- viability, T/C (second compound 0.316 µM, first compound 1 µM): 68%
- viability, T/C (second compound 0.316 µM, first compound 3.16 µM): 58.8%
- viability, T/C (second compound 0.316 µM, first compound 10 µM): 48.9%
- viability, T/C (second compound 1 µM, first compound 0.0316 µM): 101%
- viability, T/C (second compound 1 µM, first compound 0.1 µM): 91.2%
- viability, T/C (second compound 1 µM, first compound 0.316 µM): 78.5%
- viability, T/C (second compound 1 µM, first compound 1 µM): 74.7%
- viability, T/C (second compound 1 µM, first compound 3.16 µM): 58.8%
- viability, T/C (second compound 1 µM, first compound 10 µM): 46.8%
- viability, T/C (second compound 3.16 µM, first compound 0.0316 µM): 83.6%
- viability, T/C (second compound 3.16 µM, first compound 0.1 µM): 87.1%
- viability, T/C (second compound 3.16 µM, first compound 0.316 µM): 90.6%
- viability, T/C (second compound 3.16 µM, first compound 1 µM): 78%
- viability, T/C (second compound 3.16 µM, first compound 3.16 µM): 71.1%
- viability, T/C (second compound 3.16 µM, first compound 10 µM): 52.3%
- viability, T/C (second compound 10 µM, first compound 0.0316 µM): 79.2%
- viability, T/C (second compound 10 µM, first compound 0.1 µM): 93.1%
- viability, T/C (second compound 10 µM, first compound 0.316 µM): 67.2%
- viability, T/C (second compound 10 µM, first compound 1 µM): 64.2%
- viability, T/C (second compound 10 µM, first compound 3.16 µM): 54.4%
- viability, T/C (second compound 10 µM, first compound 10 µM): 26.8%
